Laboratory results taken from patent US20230285389A1, “USE OF CSF-1R KINASE INHIBITOR” (Shanghai Runshi Medical Technology Co., Ltd, priority 2020, published 2023).

Experiments:
[1] = test system: IL4/IL13-polarized murine BMDMs; assay: M2-biased polarization phenotype of BMDMs, flow cytometry of surface markers; format: cell-based, BALB/c mice; conditions: mouse-derived BMDM, 48 h
Experimental: BALB/c mice (female, 6 weeks old, healthy) were sacrificed. Bone marrow cells were taken from their femurs and tibia, and seeded into a 6-well culture plate at appropriate densities ([…], per well) after erythrobiasis treatment. 100 ng/mL of CSF-1 factor was added to each well to induce macrophages (Bone marrow-derived macrophages, BMDM). After 7 days of induction, the cell culture medium was changed. CSF-1 factor was added at the same concentration as above, and M2 polarization of macrophages was induced with 10 ng/mL of IL4 and 10 ng/mL of IL13. While inducing polarization, compounds at various concentrations were added into test wells and negative control wells. After 48 h, the cells were harvested for flow cytometric analysis.
Cells in good condition were collected, and first washed twice with PBS. After washing, each sample was re-suspended with 100 µL of PBS and 0.5 µL of the fluorescent antibody prepared according to the manufacturer’s instructions to distinguish dead and live cells was added. The samples were stained in the dark at 4° C. for 30 min. After 30 min, the samples were washed twice with 1mL of the running buffer and the tubes were centrifuged at 300 g for 5 min at 4° C. The blocking antibody diluent was prepared by adding 2 µL of blocking antibody TruStain fcX™ (anti-mouse CD16/32) per 100 µL running buffer and was added on the basis of the 100 µL system of each sample. After blocking for 10 min, according to the manufacturer’s instructions, the fluorescent antibody corresponding to the surface protein was added to the samples, and the reactant was allowed for incubation at 4° C. for 30 min. At this step, a single staining control and an FMO control were set. Then, the samples were washed twice with 1 mL of the running buffer, and centrifuged at 300 g for 5 min at 4° C. each time.
If only surface proteins were to be examined, after centrifugation, the samples were re-suspended with 300 µL of PBS and immediately input into machines, or the samples were fixed with 4% paraformaldehyde for 15 min, and centrifuged at 500 g for 7 min. […]

[2] = test system: MC38 subcutaneous xenograft; assay: Immune cell subpopulation scan in tumor tissue of MC38 xenograft model; format: in vivo, mouse
Experimental: MC38 cells in good condition were re-suspended to 25 million cells/mL. 200 µL of cell suspension was inoculated subcutaneously in the right armpit of each mouse. When the tumor cells formed subcutaneous xenograft in the mice and grew to an average volume of approximately 100 mm^3, the mice were randomly assigned to the dosing group and the control group. The test compounds were prepared at the desired concentrations and corresponding equal amount of solvent was used as a solvent control. The drugs were administrated orally, and administrated once per day for 24 consecutive days.
During the dosing period, the xenograft volumes of the mice and the weights of the mice were measured every 2-4 days. When the MC38 subcutaneous xenograft from the solvent control group of grew to 700-800 mm^3, the experiment was stopped. Fresh tumors removed from the mice were sheared with scissors into fragments no more than 2 mm^3. The digestive enzyme was prepared according to the instructions of Tumor Dissociation Kit. The tumor tissue mass was re-suspended with 2.5 mL of prepared enzyme solution, and was placed into a gentleMACS™ Dissociator instrument for dissociating the tumor with a selected program. After completion of dissociation, the suspension was filtered with a 70 µM filter screen to obtain a cell suspension. The cell suspension was lysed with an erythrocyte lysing agent for 10 min, centrifuged at 300 g for 5 min, and re-suspended with PBS. Desired amount of cells were taken out after cell counting. The cells were first washed twice with PBS. After washing, each sample was re-suspended with 100 µL of PBS and 0.5 µL of the fluorescent antibody prepared according to the manufacturer’s instructions to distinguish dead and live cells was added. The samples were stained in the dark at 4° C. for 30 min. After 30 min, the samples were washed twice with 1 mL of the running buffer and the tubes were centrifuged at 300 g for 5 min at 4° C. The blocking antibody diluent was prepared by adding 2 µL of blocking antibody TruStain fcX™ (anti-mouse CD16/32) per 100 µL running buffer and was added on the basis of the 100 µL system of each sample. After blocking for 10 min, according to the manufacturer’s instructions, the fluorescent antibody corresponding to the surface protein was added to the samples, and the reactant was allowed for incubation at 4° C. for 30 min. At this step, a single staining control and an FMO control were set. Then, the samples were washed twice with 1 mL of the running buffer, and centrifuged at 300 g for 5 min at 4° C. each time.
If only surface proteins were to be examined, after centrifugation, the samples were re-suspended with 300 µL of PBS and immediately input into machines, or the samples were fixed with 4% paraformaldehyde for 15 min, and centrifuged at 500 g for 7 min. The supernatants were discarded and the pellets were re-suspended with PBS and stored for further machine analysis.
If intracellular factors were to be examined as well, when the supernatants were discarded after centrifugation, 100 µL of re-suspended samples were retained. IC fixation solution in Intracellular Fixation & Permeabilization Buffer Set was added to each sample based on the 100 µL volume. The samples were placed at 4° C. for fixation for 30 min. After the fixation was completed, the samples were centrifuged at 500 g for 7 min. 10×Permeabilization Buffer was prepared into 1×membrane destructive solution with triple distilled water. After centrifugation, 2 mL of 1×membrane destructive solution was added to each sample to re-suspend the samples, and the samples were centrifuged at 500 g for 7 min. The process was repeated twice. 1×membrane destructive solution was used to prepare the intracellular fluorescent antibody as recommended in the instructions for antibody. The cells were re-suspended in a system of 100 µL per well, and placed at 4° C. to stain for 30 min. At this step, a single staining control and an FMO control were set. […]

[3] = test system: CD8+ T cells co-cultured with CSF-1-induced BMDMs; conditions: BMDMs pre-incubated with compound; co-culture 72 h
[4] = each dose group, oral once per day

CNC(=O)c1cccc2cc(Oc3ccnc(NC(=O)c4ccc(N5C[C@@H](C)N[C@@H](C)C5)cc4)c3)ccc12 [Compound I]
expression level of surface marker CD206 (M2-type marker) ([1]; 25, 50 and 100 nM): significantly inhibit | expression level of surface marker CD86 (M1-type marker) [1]: significantly enhance | expression level of surface marker MHC-II (M1-type marker) [1]: significantly enhance | infiltration of Granzyme B+CD8+ T cells vs solvent control ([2]; 10 mg/kg group): significantly increased | infiltration of CD206+ M2-biased macrophages in TAMs [2, 4]: further down-regulated | infiltration of TAMs in tumor tissue vs solvent control [2, 4]: significantly reduced | infiltration of CD8+ T cells vs solvent control ([2]; oral once per day): no significant change | infiltration of IFNγ+CD8+ T cells vs solvent control ([2]; oral once per day): no significant change | infiltration of Treg cells ([2]; oral once per day): significantly reduced | CD8+ T cell proliferation compared to solvent control [3]: substantially increased
